Test results reported in patent US10696707B2, “Polyene macrolide derivative” (Shionogi & Co., Ltd., priority 2014, dated 2020).
Values after ≈ are worked out from the molar mass of the structure shown. Like-named read-outs stand apart in the source and are kept apart here.

Key:
[1] = system: red blood cells (5% RBC suspension); assay: Test Example 2-2: in vitro hemolytic activity test (upper limit 200 μmol/L); format: cell-based; conditions: read-out: hemolysis IC50
Experimental: Nephrotoxic potentials of the compounds of the present invention whose X is —N(R^F)—CO—X^1 and X^1 is the group represented by formula (III) and T is —N(R^a5)— were investigated by in vitro hemolytic activity test under the condition that the upper limit was 200 μmol/L as the required concentration to 50% of hemolysis (IC50).
Defibrinated sterile blood was centrifuged at 700×g for 3 minutes and, and the supernatant was removed for 100% of red blood cells. After the cleaning with physiological saline, the washed blood cells was suspended in the medium (Earle's balanced salt sodium, bicarbonate, 0.1 g/L L-glutamine without phenol red), and was diluted by 5% (5% RBC suspension).
The washed blood was diluted by 5% in water for injection (solution of complete hemolysis), and was used as the indication of optical density for complete hemolysis.
The compounds of the present invention solution in DMSO (several and doubling dilutions starting from 10 mmol/L), DMSO as the negative control, and Amphotericin B as the positive control were used, and each 5 μL of these was added in to a well of V-form 96 well type microplate. Finally, the maximum concentration of the compounds of the present invention solution in DMSO was 200 μmol/L by adding 245 μL of the medium or 5% RBC suspension into the well.
Two hundred fifty μL of the solution of complete hemolysis was added into another well and the microplate was incubated at 37° C. in 5% of CO2 concentration for an hour.
After the incubation, each 100 μL of supernatants in wells was collected by centrifugation of the microplate at 300×g for 5 minutes and was located on a well of flat-form 96 well type microplate. An absorbance of each supernatant was measured at wavelength of 540 nm.
Percent hemolysis was calculated by using the followed equation. The required concentration to 50% of hemolysis (IC50) was calculated based on the percent hemolysis. […] Hemolysis (%)=(CR−VM)×100÷(VL−VR) Where:
CR: Absorbance of 5% RBC suspension incubated with the compounds of the present invention solution in DMSO
VM: Absorbance of medium incubated with the compounds of the present invention solution in DMSO
VL: Absorbance of solution of complete hemolysis
VR: Absorbance of 5% RBC suspension incubated with DMSO
The “>200” in the table means above IC50 value exceeded the upper concentration 200 μmol/L.

C. albicans ATCC90028 = assay: Antifungal activity test, MIC by broth microdilution (CLSI M27-A3); format: cell-based
Procedure, shortened: (§1)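 CLSI broth microdilution in RPMI 1640 with 2% glucose, 0.165 mol/L MOPS, pH 7.0; two-fold DMSO dilutions. MIC = lowest concentration giving 100% inhibition versus growth control.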

A. flavus ATCC204304 = assay: Antifungal activity test, MIC by broth microdilution (CLSI M38-A2); format: cell-based
Procedure, shortened: as §1

A. fumigatus ATCC204305 = assay: as above; format: cell-based
Procedure, shortened: as §1

[2] = Test Example 4: nephrotoxicity, kidney marker gene expression by quantitative RT-PCR after intravenous administration; format: in vivo; conditions: mouse, kidney, mice, nephrotoxicity positive when ΔΔCt of two-third of target genes (Kim1, Timp1, Lcn2) >3
Experimental: The expression level of marker genes for nephrotoxicity was determined by quantitative RT-PCR to evaluate nephrotoxicity of the compound of the present invention. The compound of the present invention or vehicle was intravenously administered to mice and their kidneys were isolated. After removal of the kidney capsule, all of the kidneys were sliced into two equal halves, and stored at −80° C. in RNAlater® (Ambion) until use. Samples were disrupted and homogenized in QIAzol Lysis Reagent with TissueLyser (Qiagen), and total RNA was extracted using an RNeasy® Mini kit (Qiagen). Total RNA concentrations were determined to read OD260 by absorptiometer.
The level of expression of the following target genes was determined using one-step quantitative real-time PCR: Kim1, Timp1, and Lcn2. Total RNA (80 ng/2 μL) was used as the template, and TaqMan Gene Expression Assays (Applied Biosystems, for Haver1 (Kim1), assay ID: Mm00506686_m1; Timp1, Mm01341361_m1; Lcn2, Mm01324470_m1) or TaqMan Endogenous Controls (Gapdh, predesigned assay reagent supplied by ABI, Applied Biosystems) were employed as gene-specific probe and primer sets. Quantitative RT-PCR was performed using a QuantiTect™ Probe RT-PCR kit (Qiagen), and transcript levels were quantitated with an Applied Biosystems 7900HT Fast Real Time PCR System (Applied Biosystems). Reverse transcription and amplification conditions were set as follows: 50° C. for 30 min, 95° C. for 15 min, followed by 40 cycles at 95° C. for 15 s and 60° C. for 1 min. The resulting cycle threshold (Ct) value was processed based on the comparative Ct method (ΔΔCt Method), where Gapdh was used as an endogenous reference gene to normalize the expression level of target genes.
The ΔCt was calculated as follows: Ct, Gapdh−Ct, target gene.
The ΔΔCt was calculated as follows: ΔCt, treated sample−ΔCt, average of vehicle control sample.
Higher ΔΔCt values indicate higher expression rates of the target gene and therefore high risk for nephrotoxicity.

[3] = Test Example 2-2, hemolysis method 200 (upper concentration 200 μmol/L), 5% RBC suspension, 37° C., one hour
[4] = C. albicans ATCC90028, broth microdilution, 35° C., 24-48 hours, 100% inhibition
[5] = A. flavus ATCC204304, broth microdilution, 35° C., 24-48 hours, 100% inhibition
[6] = A. fumigatus ATCC204305, broth microdilution, 35° C., 24-48 hours, 100% inhibition

Structure (SMILES): CC(=O)NNC(=O)N[C@H]1[C@@H]2C[C@@H](O[C@@H]3O[C@H](C)[C@@H](O)[C@H](N)[C@@H]3O)/C=C/C=C/C=C/C=C/C=C/C=C/C=C/[C@H](C)[C@@H](O)[C@@H](C)[C@H](C)OC(=O)C[C@H](O)C[C@H](O)CC[C@@H](O)[C@H](O)C[C@H](O)C[C@](O)(C[C@@H]1O)O2 [I-19]
- IC50 ([1]; Erythrocyte, 1 h, Test Example 2-2, hemolysis method 200 (upper concentration 200 μmol/L), 5% RBC suspension, 37° C., one hour): > 200 µM
- MIC (C. albicans ATCC90028; Candida albicans, C. albicans ATCC90028, broth microdilution, 35° C., 24-48 hours, 100% inhibition, read-out: MIC): 0.25 mg/L (≈ 0.251 µM)
- MIC (A. flavus ATCC204304; Aspergillus flavus, A. flavus ATCC204304, broth microdilution, 35° C., 24-48 hours, 100% inhibition, read-out: MIC): 1 mg/L (≈ 1 µM)
- MIC (A. fumigatus ATCC204305; Aspergillus fumigatus, A. fumigatus ATCC204305, broth microdilution, 35° C., 24-48 hours, 100% inhibition, read-out: MIC): 1 mg/L (≈ 1 µM)

Structure (SMILES): C[C@@H]1[C@H](O)[C@@H](C)/C=C/C=C/C=C/C=C/C=C/C=C/C=C/[C@H](O[C@@H]2O[C@H](C)[C@@H](O)[C@H](N)[C@@H]2O)C[C@@H]2O[C@](O)(C[C@@H](O)C[C@@H](O)[C@H](O)CC[C@@H](O)C[C@@H](O)CC(=O)O[C@H]1C)C[C@H](O)[C@H]2NC(=O)NNC=O [I-43]
- IC50 [1, 3]: > 200 µM
- MIC (C. albicans ATCC90028; [4]): 0.25 mg/L (≈ 0.255 µM)
- MIC (A. flavus ATCC204304; [5]): 1 mg/L (≈ 1.02 µM)
- MIC (A. fumigatus ATCC204305; [6]): 1 mg/L (≈ 1.02 µM)

Structure (SMILES): C[C@@H]1[C@H](O)[C@@H](C)/C=C/C=C/C=C/C=C/C=C/C=C/C=C/[C@H](O[C@@H]2O[C@H](C)[C@@H](O)[C@H](N)[C@@H]2O)C[C@@H]2O[C@](O)(C[C@@H](O)C[C@@H](O)[C@H](O)CC[C@@H](O)C[C@@H](O)CC(=O)O[C@H]1C)C[C@H](O)[C@H]2NC(=O)NNC(=O)c1cccnc1 [I-45]
- IC50 [1, 3]: > 200 µM
- MIC (C. albicans ATCC90028; [4]): 0.25 mg/L (≈ 0.236 µM)
- MIC (A. flavus ATCC204304; [5]): 0.5 mg/L (≈ 0.472 µM)
- MIC (A. fumigatus ATCC204305; [6]): 1 mg/L (≈ 0.945 µM)

Structure (SMILES): C[C@@H]1[C@H](O)[C@@H](C)/C=C/C=C/C=C/C=C/C=C/C=C/C=C/[C@H](O[C@@H]2O[C@H](C)[C@@H](O)[C@H](N)[C@@H]2O)C[C@@H]2O[C@](O)(C[C@@H](O)C[C@@H](O)[C@H](O)CC[C@@H](O)C[C@@H](O)CC(=O)O[C@H]1C)C[C@H](O)[C@H]2NC(=O)NNC(N)=O [I-60]
- IC50 ([1]; Erythrocyte, 1 h): > 200 µM
- MIC (C. albicans ATCC90028; Candida albicans, ATCC90028): 0.125 mg/L (≈ 0.125 µM)
- MIC (A. flavus ATCC204304; Aspergillus flavus, ATCC204304): 0.5 mg/L (≈ 0.502 µM)
- MIC (A. fumigatus ATCC204305; Aspergillus fumigatus, ATCC204305): 0.5 mg/L (≈ 0.502 µM)

Structure (SMILES): C[C@@H]1[C@H](O)[C@@H](C)/C=C/C=C/C=C/C=C/C=C/C=C/C=C/[C@H](O[C@@H]2O[C@H](C)[C@@H](O)[C@H](N)[C@@H]2O)C[C@@H]2O[C@](O)(C[C@@H](O)C[C@@H](O)[C@H](O)CC[C@@H](O)C[C@@H](O)CC(=O)O[C@H]1C)C[C@H](O)[C@H]2NC(=O)NNC(=O)NO [I-218]
- IC50 [1, 3]: > 200 µM
- MIC (C. albicans ATCC90028; [4]): 0.25 mg/L (≈ 0.247 µM)
- MIC (A. flavus ATCC204304; [5]): 0.5 mg/L (≈ 0.494 µM)
- MIC (A. fumigatus ATCC204305; [6]): 1 mg/L (≈ 0.988 µM)

Structure (SMILES): C[C@@H]1[C@H](O)[C@@H](C)/C=C/C=C/C=C/C=C/C=C/C=C/C=C/[C@H](O[C@@H]2O[C@H](C)[C@@H](O)[C@H](N)[C@@H]2O)C[C@@H]2O[C@](O)(C[C@@H](O)C[C@@H](O)[C@H](O)CC[C@@H](O)C[C@@H](O)CC(=O)O[C@H]1C)C[C@H](O)[C@H]2NC(=O)NO [I-219]
- MTD [2]: 16 mg/kg
